From patent publication US4873334A, “4,7-dihydropyrazolo(3,4-b) pyridine derivatives” (Shionogi & Co., Ltd., priority 1982, dated 1989)

Tests used:
[1] = tested on: Spontaneously Hypertensive Rats; assay: Antihypertensive action, tail-cuff systolic pressure in unanaesthetized SHR after i.p. administration; assay type: in vivo, Spontaneously Hypertensive Rats (female); settings: 3 mg/kg intraperitoneally
Procedure: Female Spontaneously Hypertensive Rats(hereinafter referred to as SHR) with 160 mmHg of systolic pressure were employed without anaesthetization. The systolic pressure was, after SHRs were kept warm at 50° C. for 2 to 3 minutes, bloodlessly measured by the tail-cuff method [Japan J. Pharmacol., 28, 617 (1978)] using a Physiograph and an Electrosphygmomanometer (DMP-4B, PE-300, Narco Biosystems, Inc., Houston). Each compound was intraperitoneally administered to SHR at a dose of 3 mg per kilogramm. Antihypertensive action is shown in a maximal decrease of blood pressure, i.e. a maximum difference between systolic pressures after and before the administration of the test compound; along with which the duration period is also shown.

[2] = tested on: heart (coronary perfusate flow); assay: Coronary vasodilating action, perfusion flow change in isolated Langendorff-perfused heart; parameters: species or system Guinea pigs
Procedure: (§1) Guinea pigs with 400-800g of body weight were hit strongly on their heads and the cartoid artery of each Guinea pigs was cut down in order to make them bloodless. The heart was isolated and perfused with at a constant pressure (50 cm H2 O) by the Langendorff method [Basic Pharmacology & Therapeutics, 9(4), 181 (1981)]. Krebs-Ringer bicarbonate solution (27° C.) containing 0.5% defibrinated blood was employed as a perfusate, into which a mixed gas of 95% oxygen and 5% carbon dioxide was continuously introduced. The flowing perfusate was led into a drop counter, and the changes of the flow i.e. increase and decrease are regarded as the respective indications for coronary vasodilation and vasoconstriction. The isomeric contraction of apex and the number of drops of the coronary perfusate were recorded on a Recticorder (RJG 3006, Nihon Koden) by way of an F-D Pick-up (SB-IT, Nihon Koden). […] Coronary vasodilating action is shown in changes of the quantiy of the perfusate, and systole inhibitory action is shown in those of inotropic tension.

[3] = tested on: heart (contraction of apex); assay: Systole inhibitory action / negative inotropic action, contractile tension of isolated Langendorff-perfused heart; parameters: species or system Guinea pigs
Procedure: as §1

in vivo = settings: mouse, female DS mice, intravenous
Procedure: In female DS mice (body weight: about 20g), LD50 value after the intravenous administration of the compounds was calculated by the Brownlee's up and down method [J. Am. Sat. As., 48, 262 (1953)].

SMILES | Duration of Effect ([1]; Table 1 (Part 2)) [h] | Maximum decrease in systolic pressure ([1]; Table 1 (Part 2)) [mmHg] | Perfusion Flow Change ([2]; 0.1 μg, Table 1 (Part 2)) | Change of Contractile Tension ([3]; 0.1 μg, Table 1 (Part 2)) [%] | Duration of Effect ([1]; Table 1 (Part 1)) [h] | Maximum Hypotension ([1]; Table 1 (Part 1)) [mmHg] | LD50 (in vivo) [mg/kg] | Perfusion Flow Change ([2]; 0.1 μg, Table 2 (Part 1)) | Perfusion Flow Change ([2]; 1 μg, Table 2 (Part 1)) | Perfusion Flow Change ([2]; 10 μg, Table 2 (Part 1)) | Change of Contractile Tension ([3]; 0.1 μg, Table 3 (Part 1)) [%] | Change of Contractile Tension ([3]; 1 μg, Table 3 (Part 1)) [%] | Change of Contractile Tension ([3]; 10 μg, Table 3 (Part 1)) [%]
CSCCOC(=O)C1=C(C)Nc2c(c(C3CCCC3)nn2C)C1c1ccccc1[N+](=O)[O-] (centres unmarked) [(J), 2-Methylthioethyl 3-cyclopentyl-1,6-dimethyl-4-(2-nitrophenyl)-4,7-dihydropyrazolo[3,4-b]pyridine-5-carboxylate] | 6 | 20 | +68% | 0 |  |  |  |  |  |  |  |  | 
COCCOC(=O)C1=C(C)Nc2c(c(C3CCCC3)nn2C)C1c1cccc([N+](=O)[O-])c1 (centres unmarked) [(C-2), 2-Methoxyethyl 3-cyclopentyl-1,6-dimethyl-4-(3-nitrophenyl)-4,7-dihydropyrazolo[3,4-b]pyridine-5-carboxylate] | 6 | 36 | +15% | 0 |  |  |  |  |  |  |  |  | 
COCCOC(=O)C1=C(C)Nc2c(c(CC3CCCC3)nn2C)C1c1ccccc1[N+](=O)[O-] (centres unmarked) [(E), 2-Methoxyethyl 3-cyclopentylmethyl-1,6-dimethyl-4-(2-nitrophenyl)-4,7-dihydropyrazolo[3,4-b]pyridine-5-carboxylate] | 6 | 26 | +20% | 0 |  |  |  |  |  |  |  |  | 
COCCOC(=O)C1=C(C)Nc2c(c(C3CCCCC3)nn2C)C1c1ccccc1[N+](=O)[O-] (centres unmarked) [(D), 2-Methoxyethyl 3-cyclohexyl-1,6-dimethyl-4-(2-nitrophenyl)-4,7-dihydropyrazolo[3,4-b]pyridine-5-carboxylate] | 6 | 65 | +32% | 0 |  |  |  |  |  |  |  |  | 
CC1=C(C(=O)OCCc2ccccc2)C(c2ccccc2[N+](=O)[O-])c2c(C3CCCC3)nn(C)c2N1 (centres unmarked) [(K), Phenethyl 3-cyclopentyl-1,6-dimethyl-4-(2-nitrophenyl)-4,7-dihydropyrazolo[3,4-b]pyridine-5-carboxylate] | 6 | 75 | +63% | 0 |  |  |  |  |  |  |  |  | 
COC(=O)C1=C(C)Nc2c(c(C3CCCC3)nn2C)C1c1cccc([N+](=O)[O-])c1 (centres unmarked) [(B-1), Methyl 3-cyclopentyl-1,6-dimethyl-4-(3-nitrophenyl)-4,7-dihydropyrazolo[3,4-b]pyridine-5-carboxylate] |  |  |  |  | 16 | 66 | 31.5 | +26% | +73% | +180% | 0 | 0 | 0
CCOC(=O)C1=C(C)Nc2c(c(C3CCCC3)nn2C)C1c1cccc([N+](=O)[O-])c1.Cl (centres unmarked) [(C-1), Ethyl 3-cyclopentyl-1,6-dimethyl-4-(3-nitrophenyl)-4,7-dihydropyrazolo[3,4-b]pyridine-5-carboxylate hydrochloride] |  |  |  |  | 14 | 42 | 50.6 | +40% | +79% | +93% | 0 | 0 | 0
CC1=C(C(=O)OCCOC2CCCC2)C(c2ccccc2[N+](=O)[O-])c2c(C3CCCC3)nn(C)c2N1 (centres unmarked) [(G), 2-Cyclopentyloxyethyl 3-cyclopentyl-1,6-dimethyl-4-(2-nitrophenyl)-4,7-dihydropyrazolo[3,4-b]pyridine-5-carboxylate] | 6 | 53 | +67% | 0 |  |  |  |  |  |  |  |  | 
CC1=C(C(=O)OCCOc2ccccc2)C(c2ccccc2[N+](=O)[O-])c2c(C3CCCC3)nn(C)c2N1 (centres unmarked) [(I), 2-Phenoxyethyl 3-cyclopentyl-1,6-dimethyl-4-(2-nitrophenyl)-4,7-dihydropyrazolo[3,4-b]pyridine-5-carboxylate] | 6 | 74 | +43% | 0 |  |  |  |  |  |  |  |  | 
CC1=C(C(=O)OCCCOC(C)C)C(c2ccccc2[N+](=O)[O-])c2c(C3CCCC3)nn(C)c2N1 (centres unmarked) [(F), 3-Isopropoxypropyl 3-cyclopentyl-1,6-dimethyl-4-(2-nitrophenyl)-4,7-dihydropyrazolo[3,4-b]pyridine-5-carboxylate] | 6 | 53 | +65% | 0 |  |  |  |  |  |  |  |  | 
CC1=C(C(=O)OCCc2ccc(Cl)cc2)C(c2cccc([N+](=O)[O-])c2)c2c(C3CCCC3)nn(C)c2N1 (centres unmarked) [(L), 4-Chlorophenethyl 3-cyclopentyl-1,6-dimethyl-4-(3-nitrophenyl)-4,7-dihydropyrazolo[3,4-b]pyridine-5-carboxylate] | 6 | 74 |  |  |  |  |  |  |  |  |  |  | 
CC1=C(C(=O)OCC2CCCO2)C(c2ccccc2[N+](=O)[O-])c2c(C3CCCC3)nn(C)c2N1 (centres unmarked) [(H), 2-Tetrahydrofurylmethyl 3-cyclopentyl-1,6-dimethyl-4-(2-nitrophenyl)-4,7-dihydropyrazolo[3,4-b]pyridine-5-carboxylate] |  | 0 | +34% | 0 |  |  |  |  |  |  |  |  | 
COC(=O)C1=C(C)NC(C)=C(C(=O)OC)C1c1ccccc1[N+](=O)[O-] [(A), Nifedipine, reference compound] | 6 | 45 | +38% | -15 | 6 | 45 |  | +38% | +100% |  | -15 | -57 | 
COc1ccc(CCOC(=O)C2=C(C)Nc3c(c(C4CCCC4)nn3C)C2c2cccc([N+](=O)[O-])c2)cc1OC (centres unmarked) [(M), 3,4-Dimethoxyphenethyl 3-cyclopentyl-1,6-dimethyl-4-(3-nitrophenyl)-4,7-dihydropyrazolo[3,4-b]pyridine-5-carboxylate] | 6 | 86 |  |  |  |  |  |  |  |  |  |  | 
COCCOC(=O)C1=C(C)Nc2c(c(C3CCCC3)nn2C)C1c1ccccc1[N+](=O)[O-] (centres unmarked) [(B-2), 2-Methoxyethyl 3-cyclopentyl-1,6-dimethyl-4-(2-nitrophenyl)-4,7-dihydropyrazolo[3,4-b]pyridine-5-carboxylate] | 6 | 45 | +28% | 0 |  |  |  |  |  |  |  |  | 
